Measurements from US12653914B2, “Compounds for fast and efficient click release” (priority 2019, dated 2026).
Where two headings read alike, the source gives them in different places. Where a SMILES comes first, the peptide text is derived from it. [ ]: non-standard residue; d: D form. The star is where a group is joined. Dolaproine = CO[C@@H]([C@@H]1CCCN1)[C@@H](C)C(=O)O; X1 = COC(=O)[C@]1(O)CC/C=C/[C@H](OC(=O)*)CC1; Dil = CC[C@H](C)[C@H](NC)[C@@H](CC(=O)O)OC; X2 = C[C@@H](N*)[C@@H](O)c1ccccc1; NMeV = CN[C@H](C(=O)O)C(C)C

Key:
[1] = Second order rate constant, TCO derivatives with tetrazine 2.18, pseudo-first order, UV spectroscopy in MeCN; conditions: reaction with 2.18 in MeCN at 20° C.; estimated from k1′
Method: Second order rate constant for the reaction between TCO derivatives and tetrazine 2.18 was determined under pseudo-first order conditions in MeCN at 20° C. by UV spectroscopy. A cuvette was filled with MeCN (3 mL) and equilibrated at 20° C. A solution of 2.18 (20 μL, 25 mM in DMSO) was added, followed by a solution of the TCO (5 μL 25 mM in DMSO). The absorption at 540 nm was monitored. The pseudo-first order reaction constant k1′ was calculated from the half-life of the decrease of this absorption, and the second order rate constant k2 was estimated from k1′ and the initial concentration of tetrazine: k2=k1′/c.

[2] = Release of constructs (C^A) from TCO triggers with tetrazines, HPLC-MS/PDA; conditions: for Time point and release %: MeCN/PBS
Method: In another experiment, the release of TCO triggers was evaluated with a range of tetrazines. The constructs to be released included the drug doxorubicin, and methylamine as a model C^A. TCO-C^A conjugates (10 μL, 25 mM in DMSO) were diluted with MeCN ([…]) and PBS ([…]). Next, a solution of the tetrazine activator (20 μL 25 mM in DMSO) was added, and the release was evaluated by HPLC-MS/PDA. The results in Table 6 show complete C^A release in 5 min from all TCO triggers with all tested activators. Importantly, no release was observed from 1.42 and 1.62 upon reaction with 2.18, which supports Formula (19), wherein an amine being Y^T1, Y^T2 or Y^T3 cannot be bound to a carbonyl.

[3] = cited from earlier work
[4] = system: HT-1080 cells (human fibrosarcoma); assay: Cell viability, MTT assay; assay type: cell-based; conditions: then 94 h, n=3
Method: HT-1080 cells (human fibrosarcoma) were added with serial dilutions of the TCO-MMAE prodrug 1.16 (100 μM-0.32 nM) in growth medium and 10 μL of a stock solution of activator 2.18 (50 μM in PBS) in a 96-well plate (n=3). After a 2 h incubation at 37° C., the medium was refreshed and the cells were incubated for 94 more hours.

[5] = Release kinetics of 7-amino-4-methylcoumarin (AMC) in various media, fluorescence; conditions: 5 μM 1.14, 7 μM activator 2.18
Method: 1.14 was reacted in PBS, DMEM buffer, full cell growth medium (DMEM+10% FBS) or human plasma at a concentration of 5 μM with activator 2.18 (7 μM) in a quartz cuvette while magnetic stirring. The increase of fluorescence due to the release of 7-amino-4-methylcoumarin (AMC) was monitored using a Perkin Elmer LS55 fluorescence spectrometer. […] In contrast, with TCO triggers not of this invention, 2.18 gives low and slow release [Versteegen et al., Angew. Chem. Int. Ed. 2013, 52, 14112-14116, Sarris et al., Chem Eur J 2018, 24, 18075-18081].

[6] = Dye (AF594) release efficiency from TCO-C^A conjugates with tetrazine activators, HPLC endpoint; conditions: 25 μM TCO, 50 μM tetrazine, PBS 37° C., 48 h, n = 2, ±1%
Method: 1.15 and 1.72 (as control without an Y^T1 group) were reacted at a concentration of 25 μM with various tetrazine activators (50 μM) in PBS (DMSO content <1%) at 37° C. Samples were analyzed by HPLC (UV and fluorescence detection; 10-100% MeCN in water with 2.5 mM NH4OAc, pH 8.4) after 48 h to obtain endpoint data for the overall dye release efficiency (Table 5). […] Importantly, highly reactive tetrazines that normally give low release yields, now give quantitative release. Compare with [Versteegen et al., Angew. Chem. Int. Ed. 2013, 52, 14112-14116, Sarris et al., Chem Eur J 2018, 24, 18075-18081].

[7] = Second order rate constants, TCO with tetrazine activators, stopped-flow spectrophotometry in PBS; conditions: PBS at 37° C., 25 μM tetrazine, 50 μM TCO
Method: Second order rate constants for the reaction of tetrazines activators with 1.13 and 1.71 were determined using a SX20 stopped-flow spectrophotometer from Applied Photophysics. Measurements were performed at 37° C. with 25 μM tetrazine and 50 μM TCO in PBS, in triplicates, monitored at 535 nm. Data was analyzed using GraphPad Prism. Second order rate constants were determined from nonlinear fitting of the absorbance vs. time curves to the second order rate equation. […] Importantly, 2.17 and 2.18 are very reactive, but afford low release yields with TCO triggers that are not part of this invention (i.e. 1.71) [Versteegen et al., Angew. Chem. Int. Ed. 2013, 52, 14112-14116].

[8] = 5 min, tetrazine 2.18, released payload dimethylamine
[9] = 10 min, tetrazine 2.20, released payload doxorubicin

COC(=O)[C@H]1CC[C@@H](O)/C=C/C[C@@H]1NC(=O)OCC[Si](C)(C)C [Compound 1.40, Methyl (1S,2S,4E,6R)-6-hydroxy-2-({[2-(trimethylsilyl)ethoxy]carbonyl}amino)cyclooct-4-ene-1-carboxylate]
k2 [1]: 39 M⁻¹ s⁻¹

CN(C)C(=O)O[C@@H]1/C=C/CCNCC1 (racemic) [Compound 1.63, (S,E)-1,2,3,4,7,8-Hexahydroazocin-4-yl dimethylcarbamate]
Time point and release % [2, 8]: 5 min: 100%

Cc1nnc(C)nn1 [3,6-bis-methyl-1,2,4,5-tetrazine]
maximum release yield ([3]; release typically takes several hours): 80-90%

CN(C)C(=O)OC[C@H]1CC[C@H](OC(=O)N(C)C)/C=C/C[C@H]1N (stereo in doubt) [Compound 1.54, (1S,5R,6S,E)-5-Amino-6-(((dimethylcarbamoyl)oxy)methyl)cyclooct-2-en-1-yl dimethylcarbamate]
k2 [1]: 38 M⁻¹ s⁻¹ | Time point and release % [2, 8]: 5 min: 50%

CN(C)C(=O)O[C@@H]1/C=C/CCN(C(=O)OCC[Si](C)(C)C)CC1 (racemic) [Compound 1.62, 2-(Trimethylsilyl)ethyl (S,E)-4-((dimethylcarbamoyl)oxy)-3,4,7,8-tetrahydroazocine-1(2H)-carboxylate]
k2 [1]: 80 M⁻¹ s⁻¹ | release upon reaction with 2.18 [2]: no release

CC[C@H](C)[C@@H]([C@@H](CC(=O)N1CCC[C@H]1[C@H](OC)[C@@H](C)C(=O)N[C@H](C)[C@@H](O)c1ccccc1)OC)N(C)C(=O)[C@@H](NC(=O)[C@H](C(C)C)N(C)C(=O)O[C@H]1/C=C/CC[C@@](O)(C(=O)OC)CC1)C(C)C [Compound 1.16, TCO-MMAE] (X1-[NMeV]V[Dil][Dolaproine]-X2)
IC50 ([4]; HT-1080, 1.16 alone (no activator), 2 h incubation): 1.3 µM | IC50 ([4]; HT-1080, in the presence of activator 2.18, 2 h incubation): 0.0003 µM

COC(=O)[C@H]1CC[C@@H](OC(=O)N(C)C)/C=C/C[C@@H]1N [Compound 1.43, Methyl (1S,2S,4E,6R)-2-amino-6-((dimethylcarbamoyl)oxy)cyclooct-4-ene-1-carboxylate]
k2 [1]: 27 M⁻¹ s⁻¹ | Time point and release % ([2]; 5 min, tetrazines 2.1, 2.3, 2.15, 2.17, 2.18 (for all tested activators), released payload dimethylamine): 5 min: 100%

CNC(=O)C[C@@H]1CC[C@H](OC(=O)N(C)C)/C=C/C[C@H]1O (relative stereo) [Compound 1.70, (rel-1S,5R,6S,E)-5-Hydroxy-6-(2-(methylamino)-2-oxoethyl)cyclooct-2-en-1-yl dimethylcarbamate]
Time point and release % [2, 8]: 5 min: 100%

COC(=O)[C@]1(O)CC/C=C/[C@H](OC(=O)N(C)c2ccc([C@@H](O)C(=O)O)cc2)CC1 [Compound 1.19, 2-Hydroxy-2-{4-[({[(1R,2E,6S)-6-hydroxy-6-(methoxycarbonyl)cyclooct-2-en-1-yl]oxy}carbonyl)(methyl)amino]phenyl}acetic acid]
k2 [1]: 134 M⁻¹ s⁻¹ | Time point and release % ([2]; 5 min, tetrazines 2.1, 2.3, 2.18 (for all tested activators), released payload 2-hydroxy-2-[4-(methylamino)phenyl]acetic acid): 5 min: 100%

COC(=O)[C@]1(O)CC/C=C/[C@H](OC(=O)Nc2ccc3c(C)cc(=O)oc3c2)CC1 [Compound 1.14, Methyl(1S,4E,6R)-1-hydroxy-6-{[(4-methyl-2-oxo-2H-chromen-7-yl)carbamoyl]oxy}cyclooct-4-ene-1-carboxylate]
time to reach 100% AMC release ([5]; PBS and medium (neat or containing FBS)): 1 to 3 min | time to complete AMC release ([5]; human plasma): approximately 20 min

COC(=O)[C@H]1CC[C@@H](OC(=O)N[C@H]2C[C@@H](OC3C[C@](O)(C(=O)CO)Cc4c(O)c5c(c(O)c43)C(=O)c3c(OC)cccc3C5=O)O[C@@H](C)[C@H]2O)/C=C/C[C@@H]1N (some centres unmarked) [Compound 1.45, TCO-doxorubicin]
Time point and release % [2, 9]: 10 min: 100%

TCO-PEG2-AF594 [Compound 1.15]
Release (%) of fluorescent dye (AF594) ([6]; activator 2.10): 99% | Release (%) of fluorescent dye (AF594) ([6]; activator 2.11): 99% | Release (%) of fluorescent dye (AF594) ([6]; activator 2.12): 92% | Release (%) of fluorescent dye (AF594) ([6]; activator 2.13): 99% | Release (%) of fluorescent dye (AF594) ([6]; activator 2.14): 99% | Release (%) of fluorescent dye (AF594) ([6]; activator 2.16): 92% | Release (%) of fluorescent dye (AF594) ([6]; activator 2.17): 96% | Release (%) of fluorescent dye (AF594) ([6]; activator 2.18): 99% | Release (%) of fluorescent dye (AF594) ([6]; activator 2.19): 99% | Release (%) of fluorescent dye (AF594) ([6]; activator 2.6): 93% | Release (%) of fluorescent dye (AF594) ([6]; activator 2.9): 98%

O=C(NCCOCCOCCOCCO)O[C@H]1/C=C/CCCCC1 [Compound 1.71, reference compound]
k2 ([7]; activator 2.12): 280 ± 30 M⁻¹ s⁻¹ | k2 ([7]; activator 2.17): 10300 ± 1200 M⁻¹ s⁻¹ | k2 ([7]; activator 2.18): 9300 ± 500 M⁻¹ s⁻¹ | k2 ([7]; activator 2.9): 80 ± 10 M⁻¹ s⁻¹

COc1cccc2c1C(=O)c1c(O)c3c(c(O)c1C2=O)C[C@@](O)(C(=O)CO)C[C@@H]3O[C@@H]1C[C@H](NC(=O)O[C@@H]2/C=C/CCNCC2)[C@H](O)[C@H](C)O1 [Compound 1.65, TCO-doxorubicin]
Time point and release % [2, 9]: 10 min: 100%

c1ccc(-c2nnc(-c3ccccn3)nn2)nc1 [3,6-bis-(2-pyridyl)-1,2,4,5-tetrazine]
click release yield ([3]; PBS/MeCN (3:1)): 7% | click release yield ([3]; serum): 12%

COC(=O)[C@H]1CC[C@@H](OC(=O)N(C)C)/C=C/C[C@@H]1NC(=O)OCC[Si](C)(C)C [Compound 1.42, Methyl (1S,2S,4E,6R)-6-((dimethylcarbamoyl)oxy)-2-(((2-(trimethylsilyl)ethoxy)carbonyl)amino)cyclooct-4-ene-1-carboxylate]
release upon reaction with 2.18 ([2]; tetrazine 2.18, amine bound to a carbonyl (protected)): no release

C[Si](C)(C)CCOC(=O)N1CC/C=C/C(O)CC1 (centres unmarked) [Compound 1.60, 2-(Trimethylsilyl)ethyl (E)-4-hydroxy-3,4,7,8-tetrahydroazocine-1(2H)-carboxylate]
k2 [1]: 277 M⁻¹ s⁻¹

C[Si](C)(C)CCOC(=O)N[C@H]1C/C=C/[C@H](O)CC[C@H]1CO [Compound 1.51, 2-(trimethylsilyl)ethyl N-[(1S,3E,5R,8R)-5-hydroxy-8-(hydroxymethyl)cyclooct-3-en-1-yl]carbamate]
k2 [1]: 104 M⁻¹ s⁻¹
